The supplement of paper PMC10307832

Experiments:
Test in all cases: relative viability (nuclei count vs DMSO), 5 days (fraction); higher = more cells survive
[1] = compound: CN(C)CC1=CC(=CC=C1)N=C(C2=CC=CC=C2)C3=C(NC4=C3C=CC(=C4)C(=O)N(C)C)O + COc1cc2c(Oc3ccc(NC(=O)C4(C(=O)Nc5ccc(F)cc5)CC4)cc3F)ccnc2cc1OCCCN1CCOCC1 [Foretinib] (partner 0.25 µM)
Outline: (§1)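 Five library-drug doses in √10 steps were combined with a fixed anchor-drug dose, or a single drug was given alone, by pin tool to lung cancer cell lines in 1536-well plates the day after seeding. Nuclei were stained and counted after 5 days. Relative viability is the nuclei count in treated wells over that in vehicle wells, taken as the median of duplicate plates.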

[2] = compound: CN(C)CC1=CC(=CC=C1)N=C(C2=CC=CC=C2)C3=C(NC4=C3C=CC(=C4)C(=O)N(C)C)O + Cc1nc(NC(=O)N2CCC[C@H]2C(N)=O)sc1-c1ccnc(C(C)(C)C(F)(F)F)c1 [Alpelisib] (partner 2 µM)
Outline: as §1

[3] = compound: CN(C)CC1=CC(=CC=C1)N=C(C2=CC=CC=C2)C3=C(NC4=C3C=CC(=C4)C(=O)N(C)C)O + O=C(c1cc(Cc2n[nH]c(=O)c3ccccc23)ccc1F)N1CCN(C(=O)C2CC2)CC1 [Olaparib] (partner 8 µM)
Outline: as §1

[4] = compound: CN(C)CC1=CC(=CC=C1)N=C(C2=CC=CC=C2)C3=C(NC4=C3C=CC(=C4)C(=O)N(C)C)O + Nc1nc2[nH]cc(CCc3ccc(C(=O)N[C@@H](CCC(=O)O)C(=O)O)cc3)c2c(=O)[nH]1 [Pemetrexed] (partner 0.2 µM)
Outline: as §1

| Cell Line | relative viability ([1]; first compound 0.08 µM) | relative viability ([1]; first compound 0.253 µM) | relative viability ([1]; first compound 0.8 µM) | relative viability ([1]; first compound 2.53 µM) | relative viability ([1]; first compound 8 µM) | relative viability ([2]; first compound 0.08 µM) | relative viability ([2]; first compound 0.253 µM) | relative viability ([2]; first compound 0.8 µM) | relative viability ([2]; first compound 2.53 µM) | relative viability ([2]; first compound 8 µM) | relative viability ([3]; first compound 0.08 µM) | relative viability ([3]; first compound 0.253 µM) | relative viability ([3]; first compound 2.53 µM) | relative viability ([3]; first compound 8 µM) | relative viability ([4]; first compound 0.08 µM) | relative viability ([4]; first compound 0.253 µM) | relative viability ([4]; first compound 2.53 µM) | relative viability ([4]; first compound 8 µM) | relative viability ([3]; first compound 0.8 µM) | relative viability ([4]; first compound 0.8 µM) |
| --- | --- | --- | --- | --- | --- | --- | --- | --- | --- | --- | --- | --- | --- | --- | --- | --- | --- | --- | --- | --- |
| NCI-H1993 | 0.721 | 0.811 | 0.81 | 0.824 | 0.935 | 0.83 | 0.671 | 0.622 | 0.694 | 0.732 | 0.772 | 1.1 | 1.12 | 1.06 | 0.684 | 0.576 | 0.495 | 0.634 |  |  |
| NCI-H650 | 1.16 | 1.08 | 0.988 | 0.846 | 1.07 | 1.05 | 0.956 | 1.2 | 0.945 | 0.825 | 0.418 | 0.395 | 0.359 | 0.406 | 0.933 | 1.14 | 0.979 | 0.831 | 0.448 | 1.15 |
| LCLC-103H | 0.746 | 0.826 | 0.825 | 0.841 | 0.508 | 0.987 | 0.923 | 0.938 | 0.876 | 0.98 | 0.751 | 0.782 | 0.775 | 0.749 | 0.47 | 0.442 | 0.458 | 0.456 | 0.773 | 0.555 |
| NCI-H2085 | 1 | 0.865 | 1.15 | 1.13 | 0.954 | 1.03 | 0.973 | 1.05 | 0.949 | 1.06 | 0.793 | 0.777 | 0.725 | 0.816 | 0.87 | 0.948 | 0.908 | 0.901 | 0.776 | 0.832 |
| NCI-H23 | 1.1 | 1.1 | 0.622 | 1.18 | 0.81 | 0.705 | 0.607 | 0.754 | 0.6 | 0.573 |  | 0.284 | 0.316 | 0.345 |  | 0.718 | 0.776 | 0.596 | 0.365 | 0.962 |
| NCI-H1355 | 0.684 | 1.05 | 0.922 | 0.919 | 1.02 | 0.802 | 0.724 | 0.681 | 0.838 | 0.849 | 0.771 | 0.707 | 0.752 | 0.732 | 1.03 | 0.991 | 0.949 | 1.02 | 0.772 | 0.926 |
| NCI-H1651 | 0.865 | 0.777 | 0.87 | 0.735 | 0.816 | 1.05 | 0.985 | 1.03 | 0.807 | 0.826 | 0.19 | 0.203 | 0.188 | 0.181 | 0.565 | 0.564 | 0.558 | 0.668 | 0.195 | 0.639 |
| HCC-78 | 0.564 | 0.582 | 0.472 | 0.61 | 0.547 | 0.364 | 0.324 | 0.356 | 0.363 | 0.318 | 0.599 | 0.816 | 0.742 | 0.862 | 0.639 | 0.873 | 0.918 | 0.859 | 0.776 | 0.857 |
| RERF-LC-KJ | 0.865 | 0.894 | 0.873 | 0.833 | 0.907 | 0.838 | 0.843 | 0.732 | 0.785 | 0.928 | 0.971 | 0.906 | 0.9 | 0.904 | 0.473 | 0.453 | 0.443 | 0.499 | 0.882 | 0.491 |
| LC-2-ad | 0.993 | 0.881 | 0.884 | 0.919 | 0.969 | 0.896 | 0.86 | 0.857 | 0.848 | 0.672 | 0.663 | 0.771 | 0.723 | 0.827 | 0.275 | 0.263 | 0.288 | 0.277 | 0.729 | 0.275 |
| NCI-H358 | 0.696 | 0.808 | 0.515 | 0.585 | 0.506 | 0.743 | 0.814 | 0.766 | 0.718 | 0.606 | 0.598 | 0.661 | 0.527 | 0.528 | 0.176 | 0.173 | 0.164 | 0.175 | 0.546 | 0.165 |
| SK-MES-1 | 0.84 | 0.975 | 0.844 | 0.87 | 0.901 | 0.876 | 0.883 | 0.716 | 0.851 | 0.875 | 0.634 | 0.698 | 0.629 | 0.522 | 0.961 | 0.881 | 0.89 | 0.897 | 0.588 | 1 |
| NCI-H1734 | 0.765 | 0.839 | 0.819 | 0.771 | 0.807 | 0.624 | 0.71 | 0.643 | 0.693 | 0.5 | 0.547 | 0.611 | 0.633 | 0.515 | 0.405 | 0.441 | 0.398 | 0.436 | 0.672 | 0.436 |
| HOP-62 | 1.08 | 1.01 | 1.12 | 1.05 | 1.17 | 0.995 | 1.13 | 0.93 | 1.03 | 0.973 | 0.373 | 0.327 | 0.251 | 0.504 | 0.264 | 0.248 | 0.344 | 0.322 | 0.361 | 0.438 |
| HCC-15 | 1.01 | 1.02 | 1.1 | 0.99 | 1 | 0.947 | 0.802 | 0.927 | 0.937 | 0.954 | 0.681 | 0.737 | 0.561 | 0.785 | 0.232 | 0.22 | 0.235 | 0.226 | 0.798 | 0.208 |
| NCI-H460 | 0.995 | 1.07 | 0.994 | 0.928 | 1.04 | 0.521 | 0.454 | 0.467 | 0.401 | 0.229 | 0.46 | 0.447 |  | 0.428 | 0.0639 | 0.0794 | 0.0522 | 0.0565 | 0.433 | 0.0612 |
